Legend:
c-Kit(V654A) = target: T1, c-Kit(V654A) (Homo sapiens, UniProt P10721, V654A); assay: c-Kit(V654A) assay (33P-ATP filter binding kinase assay); format: biochemical; conditions: recombinant human c-Kit aa 544-end V654A, ATP 200 μM
T1 construct: recombinant human c-Kit, amino acids 544-end containing the V654A mutation; GST (N)
Protocol: c-Kit(V654A) (N-terminal GST-tagged, recombinant human c-Kit, amino acids 544-end containing the V654A mutation) is incubated with 8 mM MOPS pH 7.0, 0.2 mM EDTA, 250 μM GGMEDIYEFMGGKKK, 10 mM MgAcetate and [gamma-33P-ATP] (specific activity approx. 500 cpm/pmol, concentration 200 μM). The reaction is initiated by the addition of the MgATP mix. After incubation for 40 minutes at room temperature, the reaction is stopped by the addition of 3% phosphoric acid solution. 10 μL of the reaction is then spotted onto a P30 filtermat and washed three times for 5 minutes in 75 mM phosphoric acid and once in methanol prior to drying and scintillation counting.

[1] = target: T2, GIST430/654 cell line expressing mutated constitutively active cKIT receptor tyrosine kinase (Δ560-576 deletion and V654A point mutation) (Homo sapiens, UniProt P10721, DEL560-576/V654A); assay: Cellular cKIT autophosphorylation (phospho-Y307-cKIT, Luminex bead assay) in GIST430/654 cells; format: cell-based; conditions: compounds 45 min, read-out: GIST 430/654 IC50
T2 construct: endogenous in cells; host or cells: GIST430/654 cells
Protocol: Assay Principle for Cellular Testing of cKIT Mutant Inhibitors
The GIST430 cell line expressing constitutive active cKIT receptor tyrosine kinase (Δ560-576 deletion) and the Imatinib resistant GIST430/654 cell line expressing mutated constitutively active cKIT receptor tyrosine kinase (Δ560-576 deletion and V654A point mutation) were employed for assessing cellular potency of compounds. Cellular activity of mutant cKIT was determined by the degree of cKIT autophosphorylation at tyrosine 307 using a Luminex-based bead assay. GIST430 cells were plated with 22,000 cells per well of a 96-well plate in 100 μl medium (85% IMDM/15% FCS) and GIST430/654 cells were plated with 25,000 cells per well of a 96-well plate in 100 μl medium (85% IMDM/15% FCS supplemented with 100 nM Imatinib). At the following day compounds were added in a serial dilution for 45 min. Then, cells were lysed with 90 μl lysis buffer (20 mM Hepes pH 7.5, 200 mM NaCl, 1.5 mM MgCl2×6H2O, 0.4 mM EDTA, 1% Triton-X-100, 1% Phosphatase-Inhibitor II, 20 mM β-Glycerolphosphat, 0.1% Protease-Inhibitor Cocktail III, 0.01% Benzonase) and lysates were cleared by centrifugation through a 96-well filter plate (0.65 μm). Samples were incubated with Luminex-beads which were coupled with an anti-total cKIT antibody overnight at 4° C. under gentle agitation. For detection of phospho-Y307-cKIT a phosphospecific antibody and a species-specific PE-labeled secondary antibody were added. The amount of phospho-Y307-cKIT was determined in a Luminex 200 instrument measuring 100 events per well within 60 seconds.
Counts from samples treated with compounds were calculated as percent of control from solvent treated (0.3% DMSO) samples. Dose-response curves were fitted and IC50 values were determined using Genedata Screener software.

T1 sequence (P10721 544-976 V654A): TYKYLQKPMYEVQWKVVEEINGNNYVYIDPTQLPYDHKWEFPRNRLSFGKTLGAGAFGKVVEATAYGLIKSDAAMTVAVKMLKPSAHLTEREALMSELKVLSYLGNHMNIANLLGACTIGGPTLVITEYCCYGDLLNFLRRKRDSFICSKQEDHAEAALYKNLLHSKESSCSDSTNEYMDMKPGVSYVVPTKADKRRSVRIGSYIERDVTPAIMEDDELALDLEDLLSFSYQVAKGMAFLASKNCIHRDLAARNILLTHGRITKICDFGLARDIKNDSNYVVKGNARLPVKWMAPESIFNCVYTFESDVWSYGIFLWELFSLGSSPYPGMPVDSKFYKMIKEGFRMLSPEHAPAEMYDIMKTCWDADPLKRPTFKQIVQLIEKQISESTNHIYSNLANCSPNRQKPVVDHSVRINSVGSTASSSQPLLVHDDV
T2 sequence (P10721 with tags, fused parts or gaps DEL560-576/V654A): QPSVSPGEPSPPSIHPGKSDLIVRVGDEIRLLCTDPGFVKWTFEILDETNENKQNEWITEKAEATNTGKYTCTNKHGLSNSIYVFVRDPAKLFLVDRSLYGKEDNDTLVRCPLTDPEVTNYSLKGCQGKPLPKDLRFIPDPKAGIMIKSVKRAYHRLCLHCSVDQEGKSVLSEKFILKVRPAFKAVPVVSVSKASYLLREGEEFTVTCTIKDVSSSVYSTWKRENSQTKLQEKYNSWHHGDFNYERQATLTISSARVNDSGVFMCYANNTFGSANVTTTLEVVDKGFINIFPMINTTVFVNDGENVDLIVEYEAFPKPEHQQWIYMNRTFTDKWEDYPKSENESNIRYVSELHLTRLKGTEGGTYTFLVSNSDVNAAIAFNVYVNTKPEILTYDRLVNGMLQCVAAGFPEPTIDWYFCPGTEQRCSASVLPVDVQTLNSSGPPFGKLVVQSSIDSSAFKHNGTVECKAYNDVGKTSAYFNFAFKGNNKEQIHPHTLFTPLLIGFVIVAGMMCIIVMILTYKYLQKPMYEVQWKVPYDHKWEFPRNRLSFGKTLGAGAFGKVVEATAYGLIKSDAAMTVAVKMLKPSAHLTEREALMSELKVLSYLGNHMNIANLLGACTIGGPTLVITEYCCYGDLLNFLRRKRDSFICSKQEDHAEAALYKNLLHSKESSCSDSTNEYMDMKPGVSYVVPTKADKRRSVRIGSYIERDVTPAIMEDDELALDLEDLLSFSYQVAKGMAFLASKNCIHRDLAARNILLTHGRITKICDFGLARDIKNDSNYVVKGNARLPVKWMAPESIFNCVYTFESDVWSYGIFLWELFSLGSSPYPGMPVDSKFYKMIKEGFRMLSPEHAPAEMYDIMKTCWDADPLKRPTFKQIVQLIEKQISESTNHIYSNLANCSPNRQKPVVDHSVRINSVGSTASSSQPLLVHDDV

## COc1ccn2c(-c3cc(NCc4ccc(-c5ccccc5)cc4)ncn3)cnc2c1 [A3, N-({[1,1′-biphenyl]-4-yl}methyl)-6-{7-methoxyimidazo[1,2-a]pyridin-3-yl}pyrimidin-4-amine]
c-Kit(V654A)
  IC50: 5.5 nM
[1]
  IC50: 2600 nM

## Cn1cc(-c2ccc(CNc3cc(-c4cnc5cc(C(F)(F)F)ccn45)ncn3)cc2)cn1 [A10, N-{[4-(1-methyl-1H-pyrazol-4-yl)phenyl]methyl}-6-[7-(trifluoromethyl)imidazo[1,2-a]pyridin-3-yl]pyrimidin-4-amine]
c-Kit(V654A)
  IC50: 13 nM
[1]
  IC50: 1000 nM

## COc1ccn2c(-c3cc(NCc4ccc(C(=O)N(C)C)cc4)ncn3)cnc2c1 [A13, 4-{[(6-{7-methoxyimidazo[1,2-a]pyridin-3-yl}pyrimidin-4-yl)amino]methyl}-N,N-dimethylbenzamide]
c-Kit(V654A)
  IC50: 100 nM
[1]
  IC50: 2300 nM

## Cn1ccc(-c2ccc(CNc3cc(-c4cnc5ccccn45)ncn3)cc2)n1 [A14, (6-Imidazo[1,2-a]24yridine-3-yl-pyrimidin-4-yl)-[4-(1-methyl-1H-pyrazol-3-yl)-benzyl]-amine]
c-Kit(V654A)
  IC50: 5.5 nM
[1]
  IC50: 200 nM

## COc1ccn2c(-c3cc(NCc4ccc(-c5cn(C)cn5)cc4)ncn3)cnc2c1 [A20, [6-(7-methoxy-imidazo[1,2-a]pyridin-3-yl)-pyrimidin-4-yl]-[4-(1-methyl-1H-imidazol-4-yl)-benzyl]-amine]
c-Kit(V654A)
  IC50: 55 nM
[1]
  IC50: 650 nM

## COc1ccn2c(-c3cc(NCc4ccc(-c5cnn(CCN6CCOCC6)c5)cc4)ncn3)cnc2c1 [A22, [6-(7-methoxy-imidazo[1,2-a]pyridin-3-yl)-pyrimidin-4-yl]-{4-[1-(2-morpholin-4-yl-ethyl)-1H-pyrazol-4-yl]-benzyl}-amine]
c-Kit(V654A)
  IC50: 110 nM

## CCn1cc(-c2ccc(CNc3cc(-c4cnc5cc(OC)ccn45)ncn3)cc2)cn1 [A23, [4-(1-ethyl-1H-pyrazol-4-yl)-benzyl]-[6-(7-methoxy-imidazo[1,2-a]pyridin-3-yl)-pyrimidin-4-yl]-amine]
c-Kit(V654A)
  IC50: 6.2 nM
[1]
  IC50: 66 nM

## COc1ccn2c(-c3cc(NCc4ccc(-c5cnn(CCN6CCCC6)c5)cc4)ncn3)cnc2c1 [A24, [6-(7-methoxy-imidazo[1,2-a]pyridin-3-yl)-pyrimidin-4-yl]-{4-[1-(2-pyrrolidin-1-yl-ethyl)-1H-pyrazol-4-yl]-benzyl}-amine]
c-Kit(V654A)
  IC50: 160 nM

## COc1ccn2c(-c3cc(NCc4ccc(-c5cn(C)nc5C)cc4)ncn3)cnc2c1 [A25, [4-(1,3-dimethyl-1H-pyrazol-4-yl)-benzyl]-[6-(7-methoxy-imidazo[1,2-a]pyridin-3-yl)-pyrimidin-4-yl]-amine]
c-Kit(V654A)
  IC50: 26 nM
[1]
  IC50: 210 nM

## COc1ccn2c(-c3cc(NCc4ccc(-n5cnc6ccccc65)cc4)ncn3)cnc2c1 [A27, N-{[4-(1H-1,3-benzodiazol-1-yl)phenyl]methyl}-6-{7-methoxyimidazo[1,2-a]pyridin-3-yl}pyrimidin-4-amine]
c-Kit(V654A)
  IC50: 63 nM

## COc1ccn2c(-c3cc(NCc4cccc(-c5cnn(C)c5)c4)ncn3)cnc2c1 [A28, [6-(7-methoxy-imidazo[1,2-a]pyridin-3-yl)-pyrimidin-4-yl]-[3-(1-methyl-1H-pyrazol-4-yl)-benzyl]-amine]
c-Kit(V654A)
  IC50: 35 nM
[1]
  IC50: 1400 nM

## COc1ccn2c(-c3cc(NCc4ccc(-c5cnn(C)c5)c(F)c4)ncn3)cnc2c1 [A29, N-{[3-fluoro-4-(1-methyl-1H-pyrazol-4-yl)phenyl]methyl}-6-{7-methoxyimidazo[1,2-a]pyridin-3-yl}pyrimidin-4-amine]
c-Kit(V654A)
  IC50: 15 nM
[1]
  IC50: 120 nM

## COc1ccn2c(-c3cc(NCc4ccc(-c5cnc(C)nc5N)cc4)ncn3)cnc2c1 [A43, 5-(4-{[(6-{7-methoxyimidazo[1,2-a]pyridin-3-yl}pyrimidin-4-yl)amino]methyl}phenyl)-2-methylpyrimidin-4-amine]
c-Kit(V654A)
  IC50: 260 nM

## COc1ccn2c(-c3cc(NCc4ccc(-c5cnn(C)n5)nc4)ncn3)cnc2c1 [A45, [6-(7-methoxy-imidazo[1,2-a]pyridin-3-yl)-pyrimidin-4-yl]-[6-(2-methyl-2H-[1,2,3]triazol-4-yl)-pyridin-3-ylmethyl]-amine]
c-Kit(V654A)
  IC50: 130 nM

## COCC(COC)Oc1ccn2c(-c3cc(NCc4ccc(-c5cnn(C)c5)cc4)ncn3)cnc2c1 [A54, {6-[7-(2-methoxy-1-methoxymethyl-ethoxy)-imidazo[1,2-a]pyridin-3-yl]-pyrimidin-4-yl}-[4-(1-methyl-1H-pyrazol-4-yl)-benzyl]-amine]
c-Kit(V654A)
  IC50: 120 nM

## Cn1cc(-c2ccc(CNc3cc(-c4cnc5cc(OCc6nccn6C)ccn45)ncn3)cc2)nn1 [A110, {6-[7-(1-methyl-1H-imidazol-2-ylmethoxy)-imidazo[1,2-a]pyridin-3-yl]-pyrimidin-4-yl}-[4-(1-methyl-1H-[1,2,3]triazol-4-yl)-benzyl]-amine]
c-Kit(V654A)
  IC50: 110 nM

## COc1ccn2c(-c3cc(NCc4ccc(-c5cnn(CC6CNC6)c5)cc4)ncn3)cnc2c1 [A159, N-[(4-{1-[(azetidin-3-yl)methyl]-1H-pyrazol-4-yl}phenyl)methyl]-6-{7-methoxyimidazo[1,2-a]pyridin-3-yl}pyrimidin-4-amine]
c-Kit(V654A)
  IC50: 88 nM

## COc1ccn2c(-c3cc(OC(C)c4ccc(-c5cnn(C)c5)cc4)ncn3)cnc2c1 (centres unmarked) [A171, 7-methoxy-3-(6-{1-[4-(1-methyl-1H-pyrazol-4-yl)-phenyl]-ethoxy}-pyrimidin-4-yl)-imidazo[1,2-a]pyridine]
c-Kit(V654A)
  IC50: 58 nM

## COc1ccn2c(-c3cc(NCc4ccc(-c5cnc(CO)n5C)cc4)ncn3)cnc2c1 [A174, [5-(4-{[6-(7-Methoxy-imidazo[1,2-a]pyridin-3-yl)-pyrimidin-4-ylamino]-methyl}-phenyl)-1-methyl-1H-imidazol-2-yl]-methanol]
c-Kit(V654A)
  IC50: 260 nM

## Cn1cc(-c2ccc(CNc3cc(-c4cnc5cc(OCCN6CCC67COC7)ccn45)ncn3)cc2)cn1 [A207, [4-(1-methyl-1H-pyrazol-4-yl)-benzyl]-(6-{7-[2-(6-oxa-1-aza-spiro[3.3]hept-1-yl)-ethoxy]-imidazo[1,2-a]pyridin-3-yl}-pyrimidin-4-yl)-amine]
c-Kit(V654A)
  IC50: 8.7 nM

## Cn1cc(-c2ccc(CNc3cc(-c4cnc5cc(OCCCN6CC(F)C6)ccn45)ncn3)cc2)cn1 [A240, (6-{7-[3-(3-fluoro-azetidin-1-yl)-propoxy]-imidazo[1,2-a]pyridin-3-yl}-pyrimidin-4-yl)-[4-(1-methyl-1H-pyrazol-4-yl)-benzyl]-amine]
c-Kit(V654A)
  IC50: 7.3 nM

## Cn1cc(-c2ccc(CNc3cc(-c4cnc5cc(OCCCN6CC[S+]([O-])CC6)ccn45)ncn3)cc2)cn1 [A241, [4-(1-methyl-1H-pyrazol-4-yl)-benzyl]-(6-{7-[3-(1-oxo-1|4-thiomorpholin-4-yl)-propoxy]-imidazo[1,2-a]pyridin-3-yl}-pyrimidin-4-yl)-amine]
c-Kit(V654A)
  IC50: 6.5 nM

## Cn1ncc(-c2ccc(CNc3cc(-c4cnc5cc(N6CCN(C7COC7)CC6)ccn45)ncn3)cc2)n1 [A244, [4-(2-methyl-2H-[1,2,3]triazol-4-yl)-benzyl]-{6-[7-(4-oxetan-3-yl-piperazin-1-yl)-imidazo[1,2-a]pyridin-3-yl]-pyrimidin-4-yl}-amine]
c-Kit(V654A)
  IC50: 21 nM

## Cn1ncc(-c2ccc(CNc3cc(-c4cnc5cc(OCCCN6CCN(C7CC7)CC6)ccn45)ncn3)cc2)n1 [A253, (6-{7-[3-(4-cyclopropyl-piperazin-1-yl)-propoxy]-imidazo[1,2-a]pyridin-3-yl}-pyrimidin-4-yl)-[4-(2-methyl-2H-[1,2,3]triazol-4-yl)-benzyl]-amine]
c-Kit(V654A)
  IC50: 6.5 nM

## Cn1cc(-c2ccc(CNc3cc(-c4cnc5cc(OCC6CN(CC(F)(F)F)C6)ccn45)ncn3)cc2)cn1 [A254, N-{[4-(1-methyl-1H-pyrazol-4-yl)phenyl]methyl}-6-(7-{[1-(2,2,2-trifluoroethyl)azetidin-3-yl]methoxy}imidazo[1,2-a]pyridin-3-yl)pyrimidin-4-amine]
c-Kit(V654A)
  IC50: 24 nM

## CN1CC(F)(COc2ccn3c(-c4cc(NCc5ccc(-c6cnn(C)c6)cc5)ncn4)cnc3c2)C1 [A256, 6-{7-[(3-fluoro-1-methylazetidin-3-yl)methoxy]imidazo[1,2-a]pyridin-3-yl}-N-{[4-(1-methyl-1H-pyrazol-4-yl)phenyl]methyl}pyrimidin-4-amine]
c-Kit(V654A)
  IC50: 12 nM

Source: patent US12655142B2 (Merck Patent GmbH, priority 2019, dated 2026)
